Reference: patent US20050107303A1, “Health feed” (priority 2001, published 2005)

System: immunoglobulin A
Test: IgA production by mid colon biopsy samples of cats fed the diets, measured by ELISA
Type: in vivo, cat
Protocol: The study was carried out using eight members of the cat colonic health panel, which were known to be in good (intestinal) health. Cats were wormed and vaccinated 6 months prior to the start of the trial. The cats underwent the following trial regime; [table] Both the control diet and the glutamine enriched diet provided 405 kCal/100 g. The control diet was a dry diet containing approximately 4% water. The control diet comprised the following ingredients (˜is approximately): The glutamine-supplemented diet comprised 1% dry weight by weight glutamine provided as L-glutamine. The glutamine was sprayed onto the external surface of the dry control product. Levels of immunoglobulin A production by mid colon biopsy samples were measured by enzyme linked immunosorbent assay (ELISA). IgA ELISA test was obtained from Bethyl and performed as described in provided protocol sheets. In short, 96 well microplates were taken and coated with 100 μl anti-canine IgA overnight at 4° C. After each step the plates were washed with ELISA wash (50 Mm) Tris, pH 8.0, 0.1M NaCl, 0.05% Tween 20). Unreacted sites were blocked with tris-buffered saline (TBS) containing 1% bovine serum albumin (BSA) for 30 minutes. […] Finally, the absorbence was read spectrophotometrically at 450 nm using an ELISA plate reader.

NC(=O)CC[C@H](N)C(=O)O [Glutamine, L-glutamine]
IgA production by the colon, compared to the other diets (cats fed diets containing 1% glutamine, samples taken from below the transwell, P=0.048, GLM): significant increase | IgA production (ng/mg protein) Intestinal Sample (healthy cats, diet with 1% dry w/w L-glutamine for 28 days, mid colon biopsy samples, letters (a)/(b) mark a significant difference): 1003.1 ± 762.9 (b) ng/mg protein
